According to PubChem BioAssay AID1918958 (Molecular Pharmacology Branch, DTP, NCI, 2023):

Test system: NCI-H196 complex spheroid viability
Assay: Anticancer human tumor NCI-H196 cell line growth inhibition [LSD1];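 note: spheroids exposed to agents for 7 days before readout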;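 for viability, T/C: 100% = DMSO vehicle control viability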
Conditions: for IC50: curve of first compound; for viability, T/C: stronger effect = lower value
Procedure, shortened: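 Complex spheroids of tumor cells with HUVEC and human MSCs, exposed to iadademstat combined with other agents. Each agent tested in half-log steps from near clinical Cmax (else 10 microM top), DMSO ≤0.25%.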

**Q.** What does the source list for CC1(C)CCC(CN2CCN(c3ccc(C(=O)NS(=O)(=O)c4ccc(NCC5CCOCC5)c([N+](=O)[O-])c4)c(Oc4cnc5[nH]ccc5c4)c3)CC2)=C(c2ccc(Cl)cc2)C1 + NC1CC1c1ccc(-c2cccc(O)c2)cc1?
**A.** IC50 (second compound 0.1 µM): 5.68 µM; IC50 (second compound 0.316 µM): 5.2 µM; IC50 (second compound 1 µM): 5.54 µM; IC50 (second compound 3.16 µM): 5.49 µM; IC50 (second compound 10 µM): 4.93 µM; viability, T/C (second compound 0.1 µM, first compound 0.0316 µM): 91.2%; viability, T/C (second compound 0.1 µM, first compound 0.1 µM): 99.9%; viability, T/C (second compound 0.1 µM, first compound 0.316 µM): 99%; viability, T/C (second compound 0.1 µM, first compound 1 µM): 84.2%; viability, T/C (second compound 0.1 µM, first compound 3.16 µM): 85.7%; viability, T/C (second compound 0.1 µM, first compound 10 µM): 16.9%; viability, T/C (second compound 0.316 µM, first compound 0.0316 µM): 98.6%; viability, T/C (second compound 0.316 µM, first compound 0.1 µM): 101%; viability, T/C (second compound 0.316 µM, first compound 0.316 µM): 87.1%; viability, T/C (second compound 0.316 µM, first compound 1 µM): 84%; viability, T/C (second compound 0.316 µM, first compound 3.16 µM): 79.2%; viability, T/C (second compound 0.316 µM, first compound 10 µM): 16.1%; viability, T/C (second compound 1 µM, first compound 0.0316 µM): 94.3%; viability, T/C (second compound 1 µM, first compound 0.1 µM): 97.4%; viability, T/C (second compound 1 µM, first compound 0.316 µM): 95.6%; viability, T/C (second compound 1 µM, first compound 1 µM): 95.7%; viability, T/C (second compound 1 µM, first compound 3.16 µM): 79.2%; viability, T/C (second compound 1 µM, first compound 10 µM): 19%; viability, T/C (second compound 3.16 µM, first compound 0.0316 µM): 96.5%; viability, T/C (second compound 3.16 µM, first compound 0.1 µM): 105%; viability, T/C (second compound 3.16 µM, first compound 0.316 µM): 101%; viability, T/C (second compound 3.16 µM, first compound 1 µM): 84.8%; viability, T/C (second compound 3.16 µM, first compound 3.16 µM): 80.6%; viability, T/C (second compound 3.16 µM, first compound 10 µM): 20%; viability, T/C (second compound 10 µM, first compound 0.0316 µM): 94.9%; viability, T/C (second compound 10 µM, first compound 0.1 µM): 95.6%; viability, T/C (second compound 10 µM, first compound 0.316 µM): 97.3%; viability, T/C (second compound 10 µM, first compound 1 µM): 92.1%; viability, T/C (second compound 10 µM, first compound 3.16 µM): 72.5%; viability, T/C (second compound 10 µM, first compound 10 µM): 14.2%

**Q.** Which IC50 (second compound 0.1 µM) does the source give for CCN(c1cc(-c2ccc(CN3CCOCC3)cc2)cc(C(=O)NCc2c(C)cc(C)[nH]c2=O)c1C)C1CCOCC1 + NC1CC1c1ccc(-c2cccc(O)c2)cc1 here?
**A.** > 3 µM

**Q.** What about the IC50 (second compound 0.316 µM) of the same compound?
**A.** > 3 µM

**Q.** And the IC50 (second compound 1 µM)?
**A.** > 3 µM

**Q.** What about the IC50 (second compound 3.16 µM) of the same compound?
**A.** > 3 µM

**Q.** What about the IC50 (second compound 10 µM) of the same compound?
**A.** > 3 µM

**Q.** What about the viability, T/C (second compound 0.1 µM, first compound 0.00949 µM) of the same compound?
**A.** 93.6%

**Q.** And the viability, T/C (second compound 0.1 µM, first compound 0.03 µM)?
**A.** 91.8%

**Q.** And the viability, T/C (second compound 0.1 µM, first compound 0.0949 µM)?
**A.** 98%

**Q.** What about the viability, T/C (second compound 0.1 µM, first compound 0.3 µM) of the same compound?
**A.** 108%

**Q.** What about the viability, T/C (second compound 0.1 µM, first compound 0.949 µM) of the same compound?
**A.** 107%

**Q.** And the viability, T/C (second compound 0.1 µM, first compound 3 µM)?
**A.** 118%

**Q.** What about the viability, T/C (second compound 0.316 µM, first compound 0.00949 µM) of the same compound?
**A.** 94.5%

**Q.** What about the viability, T/C (second compound 0.316 µM, first compound 0.03 µM) of the same compound?
**A.** 97.8%

**Q.** What about the viability, T/C (second compound 0.316 µM, first compound 0.0949 µM) of the same compound?
**A.** 113%

**Q.** And the viability, T/C (second compound 0.316 µM, first compound 0.3 µM)?
**A.** 104%

**Q.** And the viability, T/C (second compound 0.316 µM, first compound 0.949 µM)?
**A.** 110%

**Q.** And the viability, T/C (second compound 0.316 µM, first compound 3 µM)?
**A.** 110%

**Q.** And the viability, T/C (second compound 1 µM, first compound 0.00949 µM)?
**A.** 97.4%

**Q.** And the viability, T/C (second compound 1 µM, first compound 0.03 µM)?
**A.** 102%

**Q.** What about the viability, T/C (second compound 1 µM, first compound 0.0949 µM) of the same compound?
**A.** 102%

**Q.** What about the viability, T/C (second compound 1 µM, first compound 0.3 µM) of the same compound?
**A.** 106%

**Q.** And the viability, T/C (second compound 1 µM, first compound 0.949 µM)?
**A.** 116%

**Q.** And the viability, T/C (second compound 1 µM, first compound 3 µM)?
**A.** 112%

**Q.** And the viability, T/C (second compound 3.16 µM, first compound 0.00949 µM)?
**A.** 98.4%

**Q.** And the viability, T/C (second compound 3.16 µM, first compound 0.03 µM)?
**A.** 99%

**Q.** What about the viability, T/C (second compound 3.16 µM, first compound 0.0949 µM) of the same compound?
**A.** 101%

**Q.** What about the viability, T/C (second compound 3.16 µM, first compound 0.3 µM) of the same compound?
**A.** 102%

**Q.** What about the viability, T/C (second compound 3.16 µM, first compound 0.949 µM) of the same compound?
**A.** 98.9%

**Q.** And the viability, T/C (second compound 3.16 µM, first compound 3 µM)?
**A.** 103%

**Q.** What about the viability, T/C (second compound 10 µM, first compound 0.00949 µM) of the same compound?
**A.** 98.6%

**Q.** What about the viability, T/C (second compound 10 µM, first compound 0.03 µM) of the same compound?
**A.** 109%

**Q.** What about the viability, T/C (second compound 10 µM, first compound 0.0949 µM) of the same compound?
**A.** 104%

**Q.** And the viability, T/C (second compound 10 µM, first compound 0.3 µM)?
**A.** 104%

**Q.** What about the viability, T/C (second compound 10 µM, first compound 0.949 µM) of the same compound?
**A.** 105%

**Q.** And the viability, T/C (second compound 10 µM, first compound 3 µM)?
**A.** 92.9%
